From US8017631B2, “Oxadiazole derivatives and their medical use” (Neurosearch A/S, priority 2005, dated 2011)

How the values were obtained:
[1] = target: T1, human nicotinic acetylcholine receptor subtype α4β2 (Homo sapiens, UniProt P17787+P43681); experiment: Characterization of hα4β2 positive allosteric modulators using FLIPR; assay type: cell-based
T1 construct: expressed in transfected cells; host or cells: human HEK cells
Experimental: The ability is determined relative to a maximal nicotine response (normally 100 μM). The activity is determined as a standard assay using a fluorometric method in a Fluorescent Image Plate Reader (FLIPR) as described below in more detail.
Full concentration/response curves are generated and EC50 values are calculated based on peak values. EC50 values (Effective Concentration) represent the concentration of the test substance, at which the nicotine-induced EC20-30 response is positively modulated such that the size of the response equals 50% of a maximal nicotine control response. The maximal positively modulated response is determined relative to the reference (nicotine) response.

T1 sequence (P43681 29-627 limits assumed): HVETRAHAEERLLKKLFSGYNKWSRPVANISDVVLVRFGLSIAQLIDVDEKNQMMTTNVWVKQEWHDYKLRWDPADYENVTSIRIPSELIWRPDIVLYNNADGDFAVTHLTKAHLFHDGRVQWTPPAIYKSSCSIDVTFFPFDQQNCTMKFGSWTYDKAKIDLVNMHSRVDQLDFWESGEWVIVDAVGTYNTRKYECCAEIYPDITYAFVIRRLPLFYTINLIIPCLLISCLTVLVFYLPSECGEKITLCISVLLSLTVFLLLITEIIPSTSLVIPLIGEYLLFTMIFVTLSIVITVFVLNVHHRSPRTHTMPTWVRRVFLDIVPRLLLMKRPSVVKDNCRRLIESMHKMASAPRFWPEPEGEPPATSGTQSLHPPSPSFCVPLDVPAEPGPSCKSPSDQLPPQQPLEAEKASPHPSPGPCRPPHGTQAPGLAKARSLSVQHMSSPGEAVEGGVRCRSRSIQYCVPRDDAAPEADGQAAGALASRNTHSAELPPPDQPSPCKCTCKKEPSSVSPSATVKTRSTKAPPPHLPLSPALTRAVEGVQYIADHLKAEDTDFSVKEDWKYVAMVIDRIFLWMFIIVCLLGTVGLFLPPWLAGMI
T1 sequence (P17787 26-502): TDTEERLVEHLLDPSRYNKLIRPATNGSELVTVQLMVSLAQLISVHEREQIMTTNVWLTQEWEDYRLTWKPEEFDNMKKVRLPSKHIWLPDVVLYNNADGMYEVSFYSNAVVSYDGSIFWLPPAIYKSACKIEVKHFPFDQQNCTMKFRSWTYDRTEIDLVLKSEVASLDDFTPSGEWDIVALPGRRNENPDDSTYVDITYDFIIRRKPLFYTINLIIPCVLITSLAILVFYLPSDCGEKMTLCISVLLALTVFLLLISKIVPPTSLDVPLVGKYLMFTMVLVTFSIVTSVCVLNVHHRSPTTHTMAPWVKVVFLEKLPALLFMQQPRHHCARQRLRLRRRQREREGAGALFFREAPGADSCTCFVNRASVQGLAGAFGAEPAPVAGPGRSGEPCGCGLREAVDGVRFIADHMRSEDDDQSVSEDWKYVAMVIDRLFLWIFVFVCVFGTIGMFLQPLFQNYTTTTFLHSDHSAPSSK

| Max. Response rel. to Nicotine ([1]; maximal positively modulated response relative to maximal nicotine response (normally 100 μM), HEK cells expressing hα4β2) | EC50 ([1]; positive modulation of sub-maximal nicotine (EC20-30) response, human HEK cells expressing hα4β2, peak values) | melting point | Compound |
| --- | --- | --- | --- |
| 97% | 6.8 µM | – | O=[N+]([O-])c1ccc(-c2nc(-c3cccnc3)no2)o1 [Compound 1, 3-(5-(5-Nitro-furan-2-yl)-[1,2,4]oxadiazol-3-yl)-pyridine] |
| – | – | 141 to 144 °C | N#Cc1ccc(-c2nc(-c3cccnc3)no2)o1 [Compound 6.2, 5-(3-Pyridin-3-yl-[1,2,4]oxadiazol-5-yl)-furan-2-carbonitrile] |
